Laboratory results taken from US20100190846A1, “MICROBICIDAL AGENT AND MICROBICIDAL COMPOSITION” (priority 2006, published 2010).
Entries after “also recorded” stand apart in the source; their conditions may differ.

Key:
Salmonella sp. = assay: Paper disk method microbicidal test; format: cell-based; details: for size of the inhibition ring: 0 mg/mL control: 12.35 (flavone, 40% DMSO), — (catechin)
Description: (§1) As microbicidal test method for 5,7,4′-trihydroxy-3′,5′-dimethoxyflavone, the paper disk method was employed, by which method the microbicidal activity can be judged even in cases where a solvent has some influences.
(§2) In paper disk method, sample solutions having various sample concentration are prepared, and the sample solution was absorbed in a special paper disk, followed by drying the paper disk. Onto the plate which is made by mixing a prepared bacterial suspension with agar medium, the paper disks are placed. If the sample has a microbicidal activity, the inhibition ring which indicates the inhibition of bacterial growth is formed such that the center of the ring is coincident with the paper disk. The degree of a microbicidal activity is judged based on the size of the inhibition ring.
(§3) First, 4 mg of 5,7,4′-trihydroxy-3′,5′-dimethoxyflavone sample was dissolved in 200 μL to prepare 20 mg/mL sample solution. To 100 μL of this 20 mg/mL sample solution, 100 μL of sterilized water was added to prepare 200 μL of 10 mg/mL sample solution. To the solution, 60 μL DMSO and 140 μL of sterilized water were added to prepare 400 μL of 5.0 mg/mL sample solution. DMSO was used in the concentration of 40%, because the sample precipitated from 30% DMSO. To 350 μL of 5.0 mg/mL sample solution, 140 μL DMSO and 210 μL of sterilized water were added to prepare 700 μL of 2.5 mg/mL sample solution. In the same manner, 1.25 mg/mL and 0.625 mg/mL sample solutions were prepared. As a control, a solution containing 40% DMSO and 60% sterilized water was prepared. […] In a paper disk (8.12 mm diameter), 70 μL of these solutions each was absorbed, and the paper disks were dried for a day.
(§4) As test bacteria, Staphylococcus aureus, Salmonella sp., Yersinia enterocolitica, Pseudomonas aeruginosa, and Candida sp. were used. These bacteria were mixed with 2 mL of sterilized water to prepare bacterial suspensions having turbidity 1 (10^8/mL). The plate agar was made by mixing 0.2 mL of the bacterial suspension with 19.8 mL of BHI medium. The dried paper disk was placed onto the plate agar, and the plate was incubated in an incubator at 37° C., followed by assessing the activity. In the Table, (-) represents that no microbicidal activity was observed.

Pseudomonas aeruginosa = assay: Paper disk method microbicidal test; format: cell-based; details: for size of the inhibition ring: 0 mg/mL control: 12.33 (flavone, 40% DMSO), — (catechin)
Description: as §1, §2, §3, §4

Yersinia enterocolitica = assay: Paper disk method microbicidal test; format: cell-based; details: 0 mg/mL control: 15.65 (flavone, 40% DMSO), — (catechin)
Description: as §1, §2, §3, §4

Candida sp. = assay: Paper disk method microbicidal test; format: cell-based; details: 0 mg/mL control: 11.86 (flavone, 40% DMSO), — (catechin)
Description: as §1, §2, §3, §4

[1] = Solubility in DMSO observed during sample preparation; format: physicochemical; details: 30% DMSO; 40% DMSO used instead
Description: First, 400 mg of sample was dissolved in 1 mL of DMSO to prepare 400 mg/mL sample solution. Then 0.5 mL of this 400 mg/mL sample solution was diluted 2-fold to prepare 200 mg/mL sample solution. In the same manner, sample solutions of 100 mg/mL, 50.0 mg/mL, and 25.0 mg/mL were prepared. In addition, 300 mg/mL sample solution was prepared. Thereafter, 0.2 mL of these sample solutions each was mixed with 19.8 mL of BHI (Brain Heart Infusion Agar, Becton Dickinson, MD) medium, thereby preparing agar plates having the sample concentration of 4.0 mg/mL, 3.0 mg/mL, 2.0 mg/mL, 1.0 mg/mL, 0.5 mg/mL, and 0.25 mg/mL in dishes. […] Sterilized water was used for dissolving catechin, because catechin was insoluble in DMSO.
First, 4 mg of 5,7,4′-trihydroxy-3′,5′-dimethoxyflavone sample was dissolved in 200 μL to prepare 20 mg/mL sample solution. To 100 μL of this 20 mg/mL sample solution, 100 μL of sterilized water was added to prepare 200 μL of 10 mg/mL sample solution. To the solution, 60 μL DMSO and 140 μL of sterilized water were added to prepare 400 μL of 5.0 mg/mL sample solution. DMSO was used in the concentration of 40%, because the sample precipitated from 30% DMSO. To 350 μL of 5.0 mg/mL sample solution, 140 μL DMSO and 210 μL of sterilized water were added to prepare 700 μL of 2.5 mg/mL sample solution. In the same manner, 1.25 mg/mL and 0.625 mg/mL sample solutions were prepared. […]

[2] = 0.625 mg/mL solution on 8.12 mm paper disk
[3] = 1.25 mg/mL solution on 8.12 mm paper disk
[4] = 2.5 mg/mL solution on 8.12 mm paper disk

Compound: COc1cc(-c2cc(=O)c3c(O)cc(O)cc3o2)cc(OC)c1O [5,7,4′-Trihydroxy-3′,5′-Dimethoxyflavone, 5,7,4′-trihydroxy-3′,5′-dimethoxyflavone]
- size of the inhibition ring (Salmonella sp.; [2]): 12.35
- size of the inhibition ring (Salmonella sp.; [3]): 13.82
- size of the inhibition ring (Salmonella sp.; [4]): 16.65
- microbicidal activity (in words) (Salmonella sp.; paper disk method): had a microbicidal activity; also recorded: very strong even compared to catechin
- size of the inhibition ring (Pseudomonas aeruginosa; [2]): 15.46
- size of the inhibition ring (Pseudomonas aeruginosa; [3]): 18.54
- size of the inhibition ring (Pseudomonas aeruginosa; [4]): 19.20
- microbicidal activity (in words) (Pseudomonas aeruginosa; paper disk method): had a microbicidal activity; also recorded: very strong even compared to catechin
- size of the inhibition ring (Yersinia enterocolitica; [2]): 15.67
- size of the inhibition ring (Yersinia enterocolitica; [3]): 15.76
- size of the inhibition ring (Yersinia enterocolitica; [4]): 15.76
- size of the inhibition ring (Candida sp.; [2]): 11.86
- size of the inhibition ring (Candida sp.; [3]): 12.30
- size of the inhibition ring (Candida sp.; [4]): 11.90
- solubility in aqueous DMSO [1]: precipitated
